Results published in ChEMBL document CHEMBL1150410, “Identification of MMP-12 inhibitors by using biosensor-based screening of a fragment library” (J Med Chem, 2008).

Columns and labels:
[1] = target: T1, Macrophage metalloelastase (Homo sapiens, UniProt P39900); test: Inhibition of MMP12
Target sequence in this assay (P39900 whole entry): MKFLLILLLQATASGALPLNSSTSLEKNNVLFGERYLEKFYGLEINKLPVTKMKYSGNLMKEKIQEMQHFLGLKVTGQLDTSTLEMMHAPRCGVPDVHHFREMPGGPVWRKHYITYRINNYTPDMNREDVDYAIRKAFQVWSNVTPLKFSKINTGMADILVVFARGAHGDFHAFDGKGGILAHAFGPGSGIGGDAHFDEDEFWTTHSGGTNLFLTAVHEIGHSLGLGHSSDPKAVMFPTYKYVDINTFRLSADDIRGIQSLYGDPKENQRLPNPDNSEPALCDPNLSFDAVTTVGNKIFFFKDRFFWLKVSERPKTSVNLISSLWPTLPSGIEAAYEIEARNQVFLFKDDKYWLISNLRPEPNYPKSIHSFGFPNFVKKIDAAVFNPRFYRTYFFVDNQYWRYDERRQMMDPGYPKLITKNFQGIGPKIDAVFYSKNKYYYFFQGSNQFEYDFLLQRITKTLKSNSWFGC

[2] = target: T1, Macrophage metalloelastase; details: 0.0025 uM
Target sequence in this assay (P39900 106-470 limits assumed): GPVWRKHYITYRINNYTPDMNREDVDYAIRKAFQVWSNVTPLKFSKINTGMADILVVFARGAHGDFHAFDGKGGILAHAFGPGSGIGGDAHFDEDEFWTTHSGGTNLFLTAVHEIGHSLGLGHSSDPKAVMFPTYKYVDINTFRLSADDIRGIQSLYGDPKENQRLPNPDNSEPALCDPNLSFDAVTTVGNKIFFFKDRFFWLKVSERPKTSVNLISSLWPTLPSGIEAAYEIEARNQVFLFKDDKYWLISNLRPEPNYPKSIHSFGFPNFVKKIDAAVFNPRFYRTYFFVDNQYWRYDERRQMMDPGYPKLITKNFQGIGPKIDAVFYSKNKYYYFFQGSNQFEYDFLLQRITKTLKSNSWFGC
Description: Inhibition of MMP12 at 0.0025 uM

[3] = target: T1, Macrophage metalloelastase; test: Inhibition of MMP12 at 500 uM
Target sequence in this assay (P39900 106-470 limits assumed): as above

**Q.** How did the IC50 [1] turn out when `CNC(=O)[C@H](Cc1c[nH]c2ccccc12)NC(=O)[C@@H](CC(=O)NO)CC(C)C` [ILOMASTAT] was run?
**A.** Its IC50 is 0.001 µM.

**Q.** What about the inhibition [2] of the same compound?
**A.** Its inhibition is 75%.

**Q.** With `COc1ccc2nc[nH]c2c1` as the compound, how does the IC50 [1] read?
**A.** Its IC50 is 2000 µM.

**Q.** And the inhibition [3]?
**A.** Its inhibition is 25%.

**Q.** What does the source list for `Cn1cc2c(n1)-c1cc(Cl)ccc1SC2`?
**A.** IC50 [1]: 1000 µM; inhibition [3]: 30%

**Q.** For `Cc1ccc2c(c1)NC(=O)CO2`, which IC50 [1] is on record?
**A.** The IC50 was 355 µM.

**Q.** And the inhibition [3]?
**A.** Its inhibition is 60%.

**Q.** What does the source list for `O=C1NC(=O)C(c2ccccc2)N1` (configuration not stated)?
**A.** IC50 [1]: 0.29 µM; inhibition [3]: 100%

**Q.** For `Cc1nc(-c2ccc3c(c2)CCC(=O)N3)cs1`, which IC50 [1] is on record?
**A.** The IC50 was 5000 µM.

**Q.** What about the inhibition [3] of the same compound?
**A.** The inhibition was 10%.
